This assay addresses T1, Dihydrofolate reductase (Bos taurus, UniProt P00376).
T1 sequence (P00376 whole entry): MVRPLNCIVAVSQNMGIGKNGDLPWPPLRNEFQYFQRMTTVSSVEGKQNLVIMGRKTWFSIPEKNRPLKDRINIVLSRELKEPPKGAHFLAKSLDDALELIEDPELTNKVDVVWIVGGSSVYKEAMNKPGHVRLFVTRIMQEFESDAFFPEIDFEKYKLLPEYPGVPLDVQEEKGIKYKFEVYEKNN
Kind of assay: Inhibition of dihydrofolate reductase from bovine liver.
`Nc1ncc(Cc2cccc(C(F)(F)F)c2)c(N)n1` gave an inhibition constant Ki of 2.95 µM.
To `Nc1ccc(Cc2cnc(N)nc2N)cc1` belongs 26.9 µM; to `Nc1ncc(Cc2cc(CO)cc(CO)c2)c(N)n1`, 50.1 µM.
Consider `Nc1ncc(Cc2cccc(CO)c2)c(N)n1`, for which the inhibition constant Ki stood at 6.31 µM.
To `CS(=O)(=O)Oc1cccc(Cc2cnc(N)nc2N)c1` belongs 2.63 µM; to `Nc1ncc(Cc2ccc(OC(F)(F)F)cc2)c(N)n1`, 3.8 µM.
To `CCCCOCc1cccc(Cc2cnc(N)nc2N)c1` belongs 1.38 µM; to `Nc1ncc(Cc2cccc(I)c2)c(N)n1`, 0.708 µM.
Compound `COCc1cccc(Cc2cnc(N)nc2N)c1` displayed a Ki of 3.24 µM. This Ki lies about 4.6-fold higher than the previous one.
The compound `Cc1ccc(Cc2cnc(N)nc2N)cc1` yielded a Ki of 15.8 µM.
Compound `CC(=O)Nc1ccc(Cc2cnc(N)nc2N)cc1[N+](=O)[O-]` showed an inhibition constant (Ki) of 6.92 µM.
`CCCCOc1ccc(Cc2cnc(N)nc2N)cc1` gave a Ki of 1.82 µM.
`Nc1ncc(Cc2cccc(O)c2)c(N)n1` [3-(2,4-Diamino-pyrimidin-5-ylmethyl)-phenol] displayed an inhibition constant Ki of 13.2 µM.
`COCCOc1c(OC)cc(Cc2cnc(N)nc2N)cc1OC` [5-[3,5-Dimethoxy-4-(2-methoxy-ethoxy)-benzyl]-pyrimidine-2,4-diamine] gave a Ki of 13.2 µM.
The compound `COc1ccc(Cc2cnc(N)nc2N)cc1OC` [Diaveridine] returned a Ki of 7.08 µM.

In general, Ki refers to the dissociation constant of the complex between target and ligand, obtained from inhibition or displacement. A higher Ki goes with a looser hold on the target.

The values are drawn from BindingDB's records for doi:10.1021/jm00137a012 (1981).
